Experimental data from US20230265089A1, “QUINOLINE DERIVATIVES, PHARMACEUTICALLY ACCEPTABLE SALTS, AND METHODS OF USE THEREOF” (vTv Therapeutics LLC, priority 2020, published 2023).

biological target: T1, PDE4D7 (Homo sapiens, UniProt Q08499); experiment: PDE4D7 TR-FRET assay; format: biochemical; conditions: TR-FRET assay kit, FAM-cAMP substrate
T1 construct: purchased BPS BioSciences 60708
T1 sequence (Q08499 1-748 isoform Q08499-11): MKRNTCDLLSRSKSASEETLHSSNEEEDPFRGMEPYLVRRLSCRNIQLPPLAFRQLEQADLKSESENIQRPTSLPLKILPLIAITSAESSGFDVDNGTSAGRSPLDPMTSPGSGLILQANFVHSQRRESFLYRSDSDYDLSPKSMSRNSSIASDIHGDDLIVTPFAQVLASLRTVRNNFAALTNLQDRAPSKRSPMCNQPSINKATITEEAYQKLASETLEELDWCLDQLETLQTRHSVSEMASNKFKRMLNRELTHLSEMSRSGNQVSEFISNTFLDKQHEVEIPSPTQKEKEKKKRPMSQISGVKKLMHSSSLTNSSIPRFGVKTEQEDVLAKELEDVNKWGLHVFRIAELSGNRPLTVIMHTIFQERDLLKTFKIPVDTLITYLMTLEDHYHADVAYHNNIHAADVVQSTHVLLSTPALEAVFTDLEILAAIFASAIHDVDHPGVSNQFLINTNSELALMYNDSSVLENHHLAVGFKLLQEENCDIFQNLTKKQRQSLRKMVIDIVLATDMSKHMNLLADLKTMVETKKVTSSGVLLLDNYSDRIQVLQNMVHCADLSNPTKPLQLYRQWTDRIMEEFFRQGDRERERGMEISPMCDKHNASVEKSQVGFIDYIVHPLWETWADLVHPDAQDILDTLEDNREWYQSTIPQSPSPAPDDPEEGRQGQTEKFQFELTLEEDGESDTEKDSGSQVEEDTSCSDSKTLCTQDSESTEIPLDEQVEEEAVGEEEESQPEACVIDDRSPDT
Text: According to BPS Biosciences product information, the PDE4D7 TR-FRET assay is designed for identification of inhibitors of PDE4D7 using TR-FRET (Time Resolved Fluorescence Resonance Energy Transfer) technology. The assay is based on the generation of FAM-labeled nucleotide monophosphates by the phosphodiesterase. These phosphate groups bind to terbium-labeled nanoparticles, resulting in energy transfer from the terbium to the FAM, which emits a fluorescent signal at 520 nm. The change in fluorescent intensity can be easily measured using a fluorescence plate reader.
The general assay protocol for PDE4D7 TR-FRET assay used to obtain the experimental data described below includes two steps: First, the fluorescent-labeled cAMP is incubated with a sample containing PDE4D7 for 1 hour. Second, a binding agent and a terbium donor are added to the reaction mix and incubated for 1 hour. Then, fluorescence intensity can be measured using a fluorescence reader. A detailed protocol is as follows
Step 1: Dilute 20 μM FAM-Cyclic-3′,5′-AMP substrate stock solution 100-fold with PDE buffer to make a 200 nM solution. Make only a sufficient quantity needed for the assay; store remaining stock solution in aliquots at −20° C. Add 25 μl of FAM-Cyclic-3′,5′-AMP (200 nM) to each well designated “Substrate Control”, “Positive Control”, and “Test Inhibitor”. Add 25 μl of PDE assay buffer to each well designated “Tb-only Control”. Add 5 μl of inhibitor solution to each well designated “Test Inhibitor”. Add 5 μl of the same solution without inhibitor (inhibitor buffer) to the “Tb-only Control”, “Substrate Control” and “Positive Control”. Thaw PDE4D7 on ice. Upon first thaw, briefly spin tube containing enzyme to recover the full contents of the tube. […]
Step 2: Make binding dilution buffer by mixing equal volumes of Binding buffer A and Binding buffer B. For example, mix 1 ml Binding buffer A with 1 ml Binding buffer B. Mix binding agent thoroughly and dilute binding agent 1:50 with binding dilution buffer made in Step 1. […] Read the fluorescent intensity in a microtiter-plate reader capable of TR-FRET.

Row | SMILES | IC50
1 | COc1cccc2c1ncc1c(=O)n([C@H]3CC[C@H](C(=O)O)CC3)c(=O)n(-c3cccc(Cl)c3)c12 [COMPOUND I * HCI (Batch 1), trans-4-[1-(3-chlorophenyl)-7-methoxy-2,4-dioxo-pyrimido[5,4-c]quinolin-3-yl]cyclohexanecarboxylic acid] | 1.5 nM
2 | COc1cccc2c1ncc1c(=O)n([C@H]3CC[C@H](C(=O)O)CC3)c(=O)n(-c3cccc(Cl)c3)c12 [COMPOUND I * HCI (Batch 2), trans-4-[1-(3-chlorophenyl)-7-methoxy-2,4-dioxo-pyrimido[5,4-c]quinolin-3-yl]cyclohexanecarboxylic acid] | 3.3 nM
3 | COc1cccc2c1ncc1c(=O)n([C@H]3CC[C@H](C(=O)O)CC3)c(=O)n(-c3cccc(Cl)c3)c12 [COMPOUND I * HCI (Batch 3), trans-4-[1-(3-chlorophenyl)-7-methoxy-2,4-dioxo-pyrimido[5,4-c]quinolin-3-yl]cyclohexanecarboxylic acid] | 1.1 nM
